# Patent US20090291964A1, “Potentiators of Antibacterial Activity” (priority 2003, published 2009)
# Read-outs that look alike come from different tables or passages of the source.
# Legend:
# Format in all cases: cell-based
# [1] = tested on: S. aureus SA-1199B (NorA overproducing); experiment: MIC of fluoroquinolones with and without EPI
# How it was run: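 Fluoroquinolone MICs determined with and without efflux pump inhibitor in S. aureus SA-1199B (NorA overproducer with A116E GrlA mutation) and SA-K2068 (SA-8325-4 with a non-NorA multidrug efflux pump overproducing mutation). All assays contained 1% DMSO final.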
# S. aureus SA-1199B = experiment: Minimal effective concentration (MEC) of EPI for gatifloxacin
# Protocol: (§1) The MEC was determined as the minimal concentration of EPI that produced the maximal reduction in substrate MIC.
# (§2) Since any given compound may be recognized by an unknown number of efflux pumps in a particular organism, we reasoned that the MEC of A-106 and C-9 should vary for different antibiotics. Also, the MEC of A-106 and C-9 should vary with the degree of efflux expression in a given strain. […] This was confirmed with two other wild type strains, SA-8325-4 and SA-1199 (Table 3).
# The MEC of A-106 and C-9 for gatifloxacin was determined in these efflux mutants. […] A similar result was obtained with efflux mutant K2068, where the MEC for A-106 was 6.25 μg/ml and the MEC for C-9 was 3.1 μg/ml. […] This may reflect that either gatifloxacin is recognized by fewer pumps than EtBr or it is a poorer efflux substrate in general. This is consistent with the finding that the activity of A-106 was non-saturable for EtBr but is saturable for gatifloxacin.
# S. aureus ATCC 29213 [2] = experiment: MIC by NCCLS microdilution, antibacterial agents with and without EPI; settings: for MIC: Staphylococcus aureus
# How it was run: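 Efflux pump inhibitors were combined at fixed concentrations with antibiotics from several classes and tested against Staphylococcus aureus ATCC 29213 to compare minimum inhibitory concentrations with and without inhibitor. The inhibitor level was tied to its minimal effective concentration for ethidium bromide, a general efflux pump substrate. All assays contained a final concentration of 1% DMSO.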
# S. aureus ATCC 29213 [3] = experiment: Minimal effective concentration (MEC) of EPI for gatifloxacin; settings: lowest amount of EPI which produces the maximum effect on the MIC of gatifloxacin
# Protocol: as §1, §2
# [4] = tested on: S. aureus clinical isolates; experiment: MIC90 studies: fluoroquinolone susceptibility of clinical isolate panel with EPI; settings: EPI at 50 μg/ml
# How it was run: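 Fluoroquinolone MICs with efflux pump inhibitor measured against panels of resistant clinical isolates by NCCLS protocols. MIC90 taken across each panel. Oxacillin and vancomycin MICs run alongside to flag methicillin-resistant S. aureus and vancomycin-resistant E. faecalis isolates.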
# [5] = S. aureus SA-1199B, EPI at 4X the MEC for EtBr, VX-710 at 100 μg/ml
# [6] = SA-1199B, EPIs at 4 times MEC for EtBr, A-106 at 100 μg/ml
# [7] = S. aureus ATCC 29213, EPI at 4X the MEC for EtBr, VX-710 at 100 μg/ml
smiles,measurement,setting,value
"COc1cc(C(=O)C(=O)N(C)[C@@H](Cc2ccc(Cl)cc2)C(=O)N(Cc2ccccc2)C(CCc2ccncc2)CCc2ccncc2)cc(OC)c1OC [C-9, (S)—N-Benzyl-2-(methyl-(2-oxo-2-(3,4,5-trimethoxyphenyl)acetyl)amino)-3-(4-chloro-phenyl)-N-(3-pyridin-4-yl-1-(2-pyridin-4-yl-ethyl)propyl)propionamide]",MIC of gatifloxacin with EPI,[1]; S. aureus SA-1199B (NorA overproducer) (Table 4),0.25 µg/mL
same,MIC of ciprofloxacin with EPI,[1]; [5],2 µg/mL
same,MIC of gatifloxacin with EPI,[1]; [5],0.25 µg/mL
same,MIC of gentamicin with EPI,[1]; [5],0.125 µg/mL
same,MIC of levofloxacin with EPI,[1]; [5],1 µg/mL
same,MIC of norfloxacin with EPI,[1]; [5],8 µg/mL
same,reduction of MIC of ciprofloxacin,[1]; [6],8 fold
same,reduction of MIC of gatifloxacin,[1]; [6],4 fold
same,reduction of MIC of levofloxacin,[1]; [6],2 fold
same,reduction of MIC of norfloxacin,[1]; [6],32 fold
same,MIC,"[1]; Staphylococcus aureus, read-out: MIC of EtBr with EPI",3.1 µg/mL
same,Fold-reduction in MIC,"[1]; gatifloxacin, S. aureus SA-1199B (NorA overproducer)",2
same,MEC,"S. aureus SA-1199B; S. aureus SA-1199B (NorA overproducer), lowest amount of EPI which produces the maximum effect on the MIC of gatifloxacin",3.1 µg/mL
same,MEC for gatifloxacin,"S. aureus SA-1199B; efflux mutant, strain not named in the sentence (SA-1199B by context)",3.1 µg/mL
same,MIC of gatifloxacin with EPI,S. aureus ATCC 29213 [2]; S. aureus ATCC 29213 (Table 4),0.125 µg/mL
same,MIC of ciprofloxacin with EPI,S. aureus ATCC 29213 [2]; [7],0.125 µg/mL
same,MIC of gatifloxacin with EPI,S. aureus ATCC 29213 [2]; [7],0.063 µg/mL
same,MIC of gentamicin with EPI,S. aureus ATCC 29213 [2]; [7],0.125 µg/mL
same,MIC of levofloxacin with EPI,S. aureus ATCC 29213 [2]; [7],0.125 µg/mL
same,MIC of norfloxacin with EPI,S. aureus ATCC 29213 [2]; [7],0.5 µg/mL
same,Fold-reduction in EtBr MIC,"S. aureus ATCC 29213 [2]; S. aureus ATCC 29213, EPIs used at the MEC, except VX-710 at 100 μg/ml",4
same,reduction of the MIC of EtBr,"S. aureus ATCC 29213 [2]; S. aureus wild type, EPI up to 100 μg/ml, data not shown",30 fold
same,MIC,"S. aureus ATCC 29213 [2]; ATCC29213, read-out: MIC of EPI, S. aureus ATCC 29213, EPI alone",> 100 µg/mL
same,MIC,"S. aureus ATCC 29213 [2]; ATCC29213, read-out: MIC of EtBr with EPI, S. aureus ATCC 29213, EPI at 4X the MEC for EtBr, VX-710 at 100 μg/ml",0.8 µg/mL
same,MIC,"S. aureus ATCC 29213 [2]; ATCC29213, read-out: MIC of EtBr with EPI, S. aureus ATCC 29213, EPIs used at the MEC, except VX-710 at 100 μg/ml",1.6 µg/mL
same,Fold-reduction in MIC,"S. aureus ATCC 29213 [2]; gatifloxacin, S. aureus ATCC 29213",1
same,effect of EPI on the MIC of gatifloxacin,S. aureus ATCC 29213 [2]; wild type strain ATCC 29213,unaffected
same,MEC,S. aureus ATCC 29213 [3],>100 µg/mL
same,decrease in MIC of ciprofloxacin and norfloxacin,[4]; S. aureus isolates,no significant (>2-fold) decrease in MIC
same,Ciprofloxacin MIC with EPI,[4]; S. aureus clinical isolate 1,1 µg/mL
same,Norfloxacin MIC with EPI,[4]; S. aureus clinical isolate 1,8 µg/mL
same,Ciprofloxacin MIC with EPI,[4]; S. aureus clinical isolate 2,0.5 µg/mL
same,Norfloxacin MIC with EPI,[4]; S. aureus clinical isolate 2,1 µg/mL
same,Ciprofloxacin MIC with EPI,[4]; S. aureus clinical isolate 3,1 µg/mL
same,Norfloxacin MIC with EPI,[4]; S. aureus clinical isolate 3,4 µg/mL
same,Ciprofloxacin MIC with EPI,[4]; S. aureus clinical isolate 4,64 µg/mL
same,Norfloxacin MIC with EPI,[4]; S. aureus clinical isolate 4,128 µg/mL
same,Ciprofloxacin MIC with EPI,[4]; S. aureus clinical isolate 5,1 µg/mL
same,Norfloxacin MIC with EPI,[4]; S. aureus clinical isolate 5,2 µg/mL
same,Ciprofloxacin MIC with EPI,[4]; S. aureus clinical isolate 6,32 µg/mL
same,Norfloxacin MIC with EPI,[4]; S. aureus clinical isolate 6,128 µg/mL
same,Ciprofloxacin MIC with EPI,[4]; S. aureus clinical isolate 7,0.5 µg/mL
same,Norfloxacin MIC with EPI,[4]; S. aureus clinical isolate 7,2 µg/mL
same,Ciprofloxacin MIC with EPI,[4]; S. aureus clinical isolate 8,1 µg/mL
same,Norfloxacin MIC with EPI,[4]; S. aureus clinical isolate 8,4 µg/mL
same,Ciprofloxacin MIC with EPI,[4]; S. aureus clinical isolate 9,1 µg/mL
same,Norfloxacin MIC with EPI,[4]; S. aureus clinical isolate 9,4 µg/mL
same,Ciprofloxacin MIC with EPI,[4]; S. aureus clinical isolate 10,16 µg/mL
same,Norfloxacin MIC with EPI,[4]; S. aureus clinical isolate 10,64 µg/mL
same,Ciprofloxacin MIC with EPI,[4]; S. aureus clinical isolate 11,32 µg/mL
same,Norfloxacin MIC with EPI,[4]; S. aureus clinical isolate 11,64 µg/mL
same,Ciprofloxacin MIC with EPI,[4]; S. aureus clinical isolate 12,0.25 µg/mL
same,Norfloxacin MIC with EPI,[4]; S. aureus clinical isolate 12,1 µg/mL
same,Ciprofloxacin MIC with EPI,[4]; S. aureus clinical isolate 13,64 µg/mL
same,Norfloxacin MIC with EPI,[4]; S. aureus clinical isolate 13,128 µg/mL
same,Ciprofloxacin MIC with EPI,[4]; S. aureus clinical isolate 14,64 µg/mL
same,Norfloxacin MIC with EPI,[4]; S. aureus clinical isolate 14,128 µg/mL
same,Ciprofloxacin MIC with EPI,[4]; S. aureus clinical isolate 15,>64 µg/mL
same,Norfloxacin MIC with EPI,[4]; S. aureus clinical isolate 15,256 µg/mL
